# Measurements as given in PubChem BioAssay AID624254 (Broad Institute, 2012).
# Active and inactive are the calls of the source. The rule behind the calls is not given here.
# Experiment: Quorum luxo inducers, light production, v cholerae bh1651 luxod47e, confirmatory dose response (AID 624254)
# Settings: V. cholerae BH1651 luxOD47E, luciferase light induction, 6 h; at 50 µM (top of the series)
row,SMILES,activation (light increase)
1,Cc1cc(C(=O)OCC(=O)NC2CCCCC2)c(C)o1,inactive
2,C=CCN1C(=O)c2ccc(C(=O)N(CC)CC(=O)Nc3cc(Cl)ccc3C)cc2C1=O,inactive
3,CCOc1ccc(CNc2nnnn2C)cc1,inactive
4,CC(C)(C)c1nc(N2CCN(C(=O)c3ccco3)CC2)c2nnn(Cc3ccccc3)c2n1,inactive
5,O=C(c1cc2cc(Cl)ccc2oc1=O)N1CCCC1,inactive
6,CCCC(=O)NC1CCCc2c1cnn2-c1ccc(C)c(C)c1 (stereo not given),inactive
7,CCCn1nnnc1NCc1ccc(N(C)C)cc1,inactive
8,COc1cc(S(=O)(=O)N(Cc2cccs2)C2CC2)ccc1-n1cnnn1,inactive
9,Cc1noc(C)c1NC(=O)Nc1cccc2c1O[C@H](CN(C)S(=O)(=O)c1cccs1)[C@@H](C)CN([C@@H](C)CO)C2=O,inactive
10,C=CCn1c(=O)c(C(=O)NC(C)c2ccccc2)c(O)c2ccccc21 (stereo not given),inactive
11,COc1ccccc1NC(=O)COC(=O)c1oc2ccccc2c1C,inactive
12,CCOCCCNC(=O)C(NC(=O)CNC(=O)c1ccccc1)c1ccccc1 (stereo not given),inactive
13,Cc1noc(C)c1NC(=O)Nc1cccc2c1O[C@@H](CN(C)S(=O)(=O)c1cccs1)[C@@H](C)CN([C@@H](C)CO)C2=O,inactive
14,Cc1ccc(C)c(N(C(=O)Cn2nnc(-c3cccs3)n2)C(C(=O)NC2CC2)c2ccc(C)o2)c1 (stereo not given),inactive
15,O=[N+]([O-])c1ccc(S(=O)(=O)NCC(c2cccnc2)N2CCc3ccccc32)cc1 (stereo not given),inactive
16,CCOC(=O)C1CCN(C(=O)C2c3ccccc3C(=O)N(C)C2c2ccc(OC)cc2)CC1 (stereo not given),inactive
17,CCCS(=O)(=O)N1CCCC(C(=O)NCCCN(C)c2ccccc2)C1 (stereo not given),inactive
18,COc1cc(NC(=O)CN2C(=O)NC(c3ccccc3)(c3ccccc3)C2=O)cc(OC)c1,inactive
19,CCOC(=O)c1ccccc1NC(=O)COC(=O)C1=COCCO1,inactive
20,O=C(CCNC(=O)c1ccc(Cl)cc1)NCC(c1ccco1)N1CCCCC1 (stereo not given),inactive
21,CC(C)CC(=O)Nc1ccccc1N1CCN(C(=O)c2ccccc2)CC1,inactive
22,Cc1ccc(C(=O)OCC(=O)Nc2ccccc2)cc1NC(=O)c1ccco1,inactive
23,COc1ccccc1CCN1CCCC(CN(C)C(=O)c2ccco2)C1 (stereo not given),inactive
24,CCOC(=O)C1=C(C)NC(SC)=NC1c1ccc(OC)cc1 (stereo not given),inactive

row,SMILES,activation (light increase)
1,COc1ccc(C(=O)O)cc1S(=O)(=O)Nc1cccc(C(F)(F)F)c1,inactive
2,CCOc1ccc2cc(C#N)c(SCC(=O)N3CCC(C)CC3)nc2c1,inactive
3,COc1ccccc1NC(=O)Cc1csc(NC(=S)Nc2ccccc2)n1,inactive
4,COc1cccc(NC(=O)C2CC(=O)OC23CCOC(C)(C)C3)c1 (stereo not given),inactive
5,Cc1ccc(S(=O)(=O)N(C)c2nonc2C)cc1,inactive
6,O=c1c2cc(Br)ccc2nc(-c2cccc(C(F)(F)F)c2)n1O,inactive
7,Cc1cc(=O)oc2ccc(OCc3ccccc3)cc12,inactive
8,CCNC(=O)CCSc1nnc(-c2ccco2)o1,inactive
9,CCN(CC)c1ccc(CNc2nnnn2C)cc1,inactive
10,COc1cc(NC(=O)Cc2cccs2)ccc1-n1cnnn1,inactive
11,CCCOc1cc(C)c(S(=O)(=O)NCCOC)cc1C,inactive
12,CC1CN(C(=O)COC(=O)c2cccc(NS(=O)(=O)c3ccccc3)c2)CC(C)O1 (stereo not given),inactive
13,COc1ccccc1NC(=O)Cc1ccc(-c2ccccc2)cc1,inactive
14,CCOC(=O)c1c(NC(=O)COC(=O)Cc2c[nH]c3ccccc23)sc(C(=O)N(C)C)c1C,inactive
15,CCCS(=O)(=O)N1CCCC(C(=O)NCc2ccc(C)cc2)C1 (stereo not given),inactive
16,COc1ccc(CC(=O)N2CCC(Nc3nc4ccccc4n3Cc3ccc(F)cc3)CC2)cc1,inactive
17,O=C(Nc1cccc(Cl)c1)Nc1ccc(Cl)cn1,inactive
18,COc1cc(NC(=O)c2ccccc2)c(OC)cc1NC(=O)CN1C(=O)N(C)C2(CCCCC2)C1=O,inactive
19,Cc1ccc(/C=C/C(=O)OCC(=O)NCCc2ccc(S(N)(=O)=O)cc2)o1,inactive
20,CNC(=O)c1cc2cc(OC)ccc2n1CCN(Cc1ccccc1)Cc1ccccc1,inactive
21,Cc1onc(-c2ccccc2)c1C(=O)N1CCOCC1,inactive
22,CCCOc1ccc(NS(=O)(=O)c2cn(C)cn2)cc1,inactive
23,O=C(c1cccc(S(=O)(=O)N2CCc3ccccc32)c1)N1CCOCC1,inactive
24,Cc1ccc(C(=O)OCC(=O)NC2CCCC2)cc1,inactive

row,SMILES,activation (light increase)
1,CCc1ccc(-c2ccc(C(=O)O)n2CC)cc1,inactive
2,O=C(Nc1ccc2oc(-c3ccc4ccccc4c3)nc2c1)c1cccs1,inactive
3,CN(C1CCCCC1)S(=O)(=O)CCNC(=O)c1ccccc1,inactive
4,Cc1ccc(OCCC(=O)OCC(=O)Nc2ccc3c(c2)OCO3)cc1,inactive
5,COc1ccc(OC)c(NC(=O)Nc2cccc(Cn3cccn3)c2)c1,inactive
6,COc1ccccc1CNC(=O)COC(=O)c1n[nH]c2ccccc12,inactive
7,CN(CC(=O)NCCN1CCOCC1)S(=O)(=O)c1ccc(Cl)cc1,inactive
8,C[C@@H]1CN([C@H](C)CO)C(=O)c2cccc(NC(=O)C3CC3)c2O[C@H]1CN(C)S(=O)(=O)c1cccs1,inactive
9,COc1ccc(S(=O)(=O)N2CCSC2c2ccc(N)cc2)cc1 (stereo not given),inactive
10,Cc1noc(C)c1NC(=O)Nc1cccc2c1O[C@H](CN(C)S(=O)(=O)c1cccs1)[C@H](C)CN([C@H](C)CO)C2=O,inactive
11,O=C(Oc1ccc2ccc(OC(=O)N3CCOCC3)cc2c1)N1CCOCC1,inactive
12,Cc1ccc(OCCNC(=O)c2ccc(C)o2)cc1,inactive
13,CC(=O)c1cccc(NC(=O)CSc2nc(=O)n(CCN3CCOCC3)c3c2CCCC3)c1,inactive
14,NC(=O)c1nsc(C(=O)N(CC(=O)NCc2ccc(F)cc2)Cc2ccco2)c1N,inactive
15,Cc1ccc(S(=O)(=O)Nc2ccccc2F)cc1C(=O)NCCCN1CCCC1=O,inactive
16,CCN(CC(=O)NCc1ccc(Cl)cc1)C(=O)CSc1ccccc1,inactive
17,CN1CC(=O)N(CC(=O)Nc2ccc3c(c2)CCC3)C1=O,inactive
18,Cc1ccccc1-n1nnnc1-c1ccccc1,inactive
19,CCOC(=O)C1CCCN(C(=O)c2cc3c(OC)c(OC)c(OC)cc3[nH]2)C1 (stereo not given),inactive
20,C[C@H]1CN([C@@H](C)CO)C(=O)c2cccc(NC(=O)C3CC3)c2O[C@H]1CN(C)S(=O)(=O)c1cccs1,inactive
21,CCN(CCNC(=O)C1CCCN(S(=O)(=O)CC)C1)c1ccccc1 (stereo not given),inactive
22,CCOc1ccc(CNC(=O)Cn2c(=O)c3cccn3c3ccccc32)cc1,inactive
23,O=C(O)C1C2CCC(C2)C1C(=O)Nc1cc(F)ccc1F (stereo not given),inactive
24,COc1ccc(OCc2nnc3n2N=C(c2ccc(OC)cc2)CS3)cc1,inactive

row,SMILES,activation (light increase)
1,C[C@@H]1CN([C@@H](C)CO)C(=O)c2cccc(NC(=O)C3CC3)c2O[C@H]1CN(C)S(=O)(=O)c1cccs1,inactive
2,N#CCSc1ccccc1NC(=O)COC(=O)CCNC(=O)c1ccc([N+](=O)[O-])cc1,inactive
3,Cc1nnc2c3ccccc3c(-c3ccc(O)cc3)nn12,inactive
4,Cc1ccc(C(=O)OCC(=O)NC2CCCC2)cc1C,inactive
5,COc1ccc(CCN(C)C(=O)c2cc(S(=O)(=O)N3CCCCCC3)ccc2OC)cc1OC,inactive
6,O=C(Nc1cccc(-c2ccc(N3CCOCC3)nn2)c1)c1ccc([N+](=O)[O-])cc1,inactive
7,CCCCCn1nc(C(=O)N(CC(C)C)c2c(N)n(CCCC)c(=O)[nH]c2=O)c2ccccc2c1=O,inactive
8,CCCN1CCN(C(=O)CCCNC(=O)Cn2cnc3sc(C)c(C)c3c2=O)CC1,inactive
9,Cc1nc2ccc(C(=O)OCC(=O)N(C)c3ccccc3)cc2nc1C,inactive
10,CC12CCC(=O)N1C(C(=O)NNC(=O)COc1ccc(Br)cc1)CS2 (stereo not given),inactive
11,CCCNC(=O)COC(=O)/C=C/c1ccco1,inactive
12,CCOC(=O)C1(CCOc2ccccc2)CCN(Cc2cc(OC)cc(OC)c2)CC1,inactive
13,O=c1ncn(-c2cccc(Cl)c2)c2ccccc12,inactive
14,O=c1oc2c(CN3CCOCC3)c(O)c(Cl)cc2c2c1CCC2,inactive
15,N#Cc1nc(-c2ccc(OCc3ccc(Cl)cc3)cc2)oc1NCc1cccnc1,inactive
16,CC(=O)Nc1ccc(NS(=O)(=O)c2cn(C)cn2)cc1,inactive
17,CCC(=O)c1ccc(N2CCCCCC2)c(F)c1,inactive
18,O=c1c2ccccc2nnn1CSc1nnc2ccccn12,inactive
19,Cc1ccc(SCc2nc(-c3cccnc3)no2)cc1,inactive
20,CCC1Nc2ncnc(N3CCN(c4ccccc4)CC3)c2N(Cc2ccccc2)C1=O (stereo not given),inactive
21,COc1cccc(CNC(=O)COC(=O)CN(C)S(=O)(=O)c2ccc(NC(C)=O)cc2)c1,inactive
22,Cc1csc(NC(=O)Cc2nn(C)c(=O)c3ccccc23)n1,inactive
23,CCCCOc1ccc(NS(=O)(=O)c2cn(C)cn2)cc1,inactive
